Laboratory results published in patent US20110305637A1, “RADIOLABELLED PDE10 LIGANDS” (Janssen Pharmaceutica N.V., priority 2009, published 2011).
Values joined by “and” are separate entries in the source; they are usually repeats but may differ in a detail not shown here. Equal entries are not always repeated.

Test: Biodistribution study in male Wistar rats
Type: in vivo, rat
Settings: for % ID/g × kg in Blood / % ID/g × kg in Cerebellum / % ID/g × kg in Cerebrum + Cerebellum / % ID/g × kg in Cerebrum total / % ID/g × kg in Cortex / % ID/g × kg in Heart / % ID/g × kg in Hippocampus / % ID/g × kg in Kidneys / % ID/g × kg in Liver / % ID/g × kg in Lungs / % ID/g × kg in Rest of cerebrum / % ID/g × kg in Spleen + Pancreas / % ID/g × kg in Striatum: normalized for body weight
Description: (§1) The biodistribution study of [^18F]B-1 was carried out in male Wistar rats (body weight 250-350 g) at 2 min, 30 min and 60 min post injection (p.i.) (n=3/time point). Rats were injected with about 1.1 MBq of the tracer via tail vein under anesthesia (2.5% Isoflurane in O2 at 1 L/min flow rate) and sacrificed by decapitation at above specified time points. Blood and major organs were collected in tared tubes and weighed. The radioactivity in blood, organs and other body parts was measured using an automated gamma counter The distribution of radioactivity in different parts of the body at different time points p.i. of the tracer was calculated and expressed as percentage of injected dose (% ID), and as percentage of injected dose per gram tissue (% ID/g) for the selected organs. % ID is calculated as cpm in organ/total cpm recovered. For calculation of total radioactivity in blood, blood mass was assumed to be 7% of the body mass.
as §1, with “[^18F]B-2” for “[^18F]B-1”, “270-340” for “250-350”

[1] = 60 min p.i., % ID/g values normalized for the body weight

In the case of `[18F]CCCn1cc(-c2ccncc2)c(-c2ccc(OCc3ccc4ccccc4n3)cc2)n1` [[^18F]B-1], the “% ID/g × kg in Blood” value (30 min p.i.) is reported as 0.03 ± 0.00 % ID/g × kg, the “% ID/g × kg in Cerebellum” value (30 min p.i.) is reported as 0.023 ± 0.00 % ID/g × kg and the “% ID/g × kg in Cerebrum + Cerebellum” value (30 min p.i.) is reported as 0.03 ± 0.00 % ID/g × kg. For the same compound, the “% ID/g × kg in Cerebrum total” value (30 min p.i.) was 0.032 ± 0.00 % ID/g × kg, the “% ID/g × kg in Cortex” value (30 min p.i.) was 0.027 ± 0.01 % ID/g × kg and the “% ID/g × kg in Heart” value (30 min p.i.) was 0.07 ± 0.00 % ID/g × kg. For the same compound, the “% ID/g × kg in Hippocampus” value (30 min p.i.) was 0.021 ± 0.00 % ID/g × kg, the “% ID/g × kg in Kidneys” value (30 min p.i.) was 0.16 ± 0.01 % ID/g × kg and the “% ID/g × kg in Liver” value (30 min p.i.) was 1.03 ± 0.08 % ID/g × kg. For the same compound, the “% ID/g × kg in Lungs” value (30 min p.i.) was 0.35 ± 0.03 % ID/g × kg, the “% ID/g × kg in Rest of cerebrum” value (30 min p.i.) was 0.030 ± 0.00 % ID/g × kg and the “% ID/g × kg in Spleen + Pancreas” value (30 min p.i.) was 0.07 ± 0.00 % ID/g × kg. For the same compound, the “% ID/g × kg in Striatum” value (30 min p.i.) was 0.106 ± 0.00 % ID/g × kg, the “% ID in Blood” value (60 min p.i.) was 1.9 % ID and 1.94 ± 0.1 % ID and the “% ID in Carcass” value (60 min p.i.) was 27.96 ± 0.7 % ID. For the same compound, the “% ID in Cerebellum” value (60 min p.i.) was 0.012 ± 0.00 % ID, the “% ID in Cerebrum total” value (60 min p.i.) was 0.101 ± 0.01 % ID and the “% ID in Cortex” value (60 min p.i.) was 0.012 ± 0.00 % ID. The “% ID in Heart” value (60 min p.i.) was 0.17 ± 0.0 % ID, the “% ID in Hippocampus” value (60 min p.i.) was 0.003 ± 0.00 % ID and the “% ID in Intestines” value (60 min p.i.) was 14.72 ± 4.1 % ID. For the same compound, the “% ID in Kidneys” value (60 min p.i.) was 1.45 ± 0.1 % ID, the “% ID in Liver” value (60 min p.i.) was 41.44 ± 1.5 % ID and the “% ID in Lungs” value (60 min p.i.) was 0.32 ± 0.0 % ID. The “% ID in Rest of cerebrum” value (60 min p.i.) was 0.071 ± 0.01 % ID, the “% ID in Spleen + Pancreas” value (60 min p.i.) was 0.31 ± 0.0 % ID and the “% ID in Stomach” value (60 min p.i.) was 10.00 ± 2.5 % ID. The “% ID in Striatum” value (60 min p.i.) was 0.015 ± 0.00 % ID, the “% ID in Urine” value (60 min p.i.) was 1.87 ± 0.2 % ID and the “% ID present in the liver and intestines in total” value (60 min p.i.) was 56 % ID. The “% ID present in the urinary system” value (60 min p.i.) was roughly 3.3 % ID, the “% ID/g in Blood” value (60 min p.i.) was 0.08 ± 0.00 % ID/g and the “% ID/g in Cerebellum” value (60 min p.i.) was 0.04 ± 0.00 % ID/g. The “% ID/g in Cerebrum + Cerebellum” value (60 min p.i.) was 0.07 ± 0.00 % ID/g, the “% ID/g in Cerebrum total” value (60 min p.i.) was 0.07 ± 0.00 % ID/g and the “% ID/g in Cortex” value (60 min p.i.) was 0.06 ± 0.00 % ID/g. The “% ID/g in Heart” value (60 min p.i.) was 0.16 ± 0.00 % ID/g, the “% ID/g in Hippocampus” value (60 min p.i.) was 0.05 ± 0.01 % ID/g and the “% ID/g in Kidneys” value (60 min p.i.) was 0.46 ± 0.02 % ID/g. For the same compound, the “% ID/g in Liver” value (60 min p.i.) was 3.11 ± 0.06 % ID/g, the “% ID/g in Lungs” value (60 min p.i.) was 0.20 ± 0.02 % ID/g and the “% ID/g in Rest of cerebrum” value (60 min p.i.) was 0.07 ± 0.00 % ID/g. For the same compound, the “% ID/g in Spleen + Pancreas” value (60 min p.i.) was 0.19 ± 0.01 % ID/g, the striatum/blood ratio [1] was 3.0 and the striatum/cerebellum ratio [1] was 5.6. The striatum/cortex ratio [1] was 4.4, the striatum/hippocampus ratio [1] was 5.2 and the “% ID/g × kg in Blood” value (60 min p.i.) was 0.03 ± 0.00 % ID/g × kg. For the same compound, the “% ID/g × kg in Cerebellum” value (60 min p.i.) was 0.015 ± 0.00 % ID/g × kg, the “% ID/g × kg in Cerebrum + Cerebellum” value (60 min p.i.) was 0.02 ± 0.00 % ID/g × kg and the “% ID/g × kg in Cerebrum total” value (60 min p.i.) was 0.024 ± 0.00 % ID/g × kg. For the same compound, the “% ID/g × kg in Cortex” value (60 min p.i.) was 0.019 ± 0.00 % ID/g × kg, the “% ID/g × kg in Heart” value (60 min p.i.) was 0.05 ± 0.00 % ID/g × kg and the “% ID/g × kg in Hippocampus” value (60 min p.i.) was 0.016 ± 0.00 % ID/g × kg. The “% ID/g × kg in Kidneys” value (60 min p.i.) was 0.16 ± 0.01 % ID/g × kg, the “% ID/g × kg in Liver” value (60 min p.i.) was 1.04 ± 0.02 % ID/g × kg and the “% ID/g × kg in Lungs” value (60 min p.i.) was 0.07 ± 0.01 % ID/g × kg. The “% ID/g × kg in Rest of cerebrum” value (60 min p.i.) was 0.022 ± 0.00 % ID/g × kg, the “% ID/g × kg in Spleen + Pancreas” value (60 min p.i.) was 0.06 ± 0.01 % ID/g × kg and the “% ID/g × kg in Striatum” value (60 min p.i.) was 0.083 ± 0.01 % ID/g × kg. For the same compound, the “Clearance, 2 min/30 min ratio for % ID/g values” (Blood) was 1.60, the “Clearance, 2 min/60 min ratio for % ID/g values” (Blood) was 2.28 and the “Clearance, 2 min/30 min ratio for % ID/g values” (Cerebellum) was 4.37. The “Clearance, 2 min/60 min ratio for % ID/g values” (Cerebellum) was 8.8 and 8.81, the “Clearance, 2 min/30 min ratio for % ID/g values” (Cerebrum total) was 2.54 and the “Clearance, 2 min/60 min ratio for % ID/g values” (Cerebrum total) was 4.34. The “Clearance, 2 min/30 min ratio for % ID/g values” (Cortex) was 3.81, the “Clearance, 2 min/60 min ratio for % ID/g values” (Cortex) was 7.19 and the “Clearance, 2 min/30 min ratio for % ID/g values” (Hippocampus) was 2.54. For the same compound, the “Clearance, 2 min/60 min ratio for % ID/g values” (Hippocampus) was 4.33, the “Clearance, 2 min/30 min ratio for % ID/g values” (Rest of cerebrum) was 2.54 and the “Clearance, 2 min/60 min ratio for % ID/g values” (Rest of cerebrum) was 4.53. The “Clearance, 2 min/30 min ratio for % ID/g values” (Striatum) was 0.97, the “Clearance, 2 min/60 min ratio for % ID/g values” (Striatum) was 1.6 and 1.62 and the “% ID present in the carcass” value (at all time points examined) was roughly 26 % ID.
